The text below walks through data of patent US5068340A, “Isothiazolyl substituted glycerol derivatives containing phosphate groups” (priority 1986, dated 1991).

Counter-ions that a name gives are not always drawn.

One test relates to PAF-induced hypotension. Description: Inhibition of PAF-induced hypotension (rat, i.v.). The format is in vivo, rats of the Wistar-Imamichi strain. The settings on record: 50% inhibitory dose, intravenous, cumulative doses, 10 ng/kg i.v. 1-C16:0 PAF, Inactin anesthesia, rats, read-out: Inhibition of Hypotension ID50. As for the experimental part: Inhibition of PAF-induced hypotension
The test animals employed were rats of the Wistar-Imamichi strain, each weighing between 350 and 450 g.
Under Inactin anesthesia (90 mg/kg administered intraperitoneally) the left femoral artery and vein of each test animal were cannulated to enable the arterial blood pressure to be monitored continuously and for drug administration, respectively. At intervals of about 5 minutes, each animal was given by intravenous injection 10 ng/kg of synthetic 1-C16:0 PAF until a steady hypotensive response was achieved. At this time, the drug to be tested was administered by intravenous injection in doses increasing cumulatively by a factor of 3. Within 1 minute of this injection, a further 10 ng/kg of the 1-C16:0 PAF was administered. The hypotensive response to PAF was inhibited by the test drug in a dose-related manner.
The PAF was administered in the form of a solution in physiological saline containing 0.25% w/v bovine serum albumin. The test drugs were dissolved in physiological saline containing either 0.25% w/v BSA or 20% v/v ethanol.
The 50% inhibitory dose (ID50) was calculated from the dose-response curve constructed for the inhibition of PAF-induced hypotension.
This test was carried out using compounds of the invention, as well as the prior art compound CV-3988, disclosed in U.S. Pat. No. 4,408,052 and represented by the foregoing formula (B).

The test system of test [1] is PAF-induced platelet aggregation. Description: Inhibition of PAF-induced platelet aggregation in vitro (platelet-rich plasma). The settings on record: Oryctolagus cuniculus, 5 min, rabbit plasma, platelet count 6×10^5/μl, C16:0 PAF 1×10^-8-3×10^-8 M final. Type of test: cell-based. As for the experimental part: Inhibition of PAF-induced platelet aggregation in vitro
Blood was drawn from a rabbit and immediately mixed with one nineth of its volume of a 3.8% w/v aqueous solution of sodium citrate. A platelet-rich plasma (PRP) was obtained as a supernatant by centrifugation of the blood at 150×g for 15 minutes at room temperature. The precipitated fraction was centrifuged for a further 15 minutes at 1000×g to obtain a platelet-poor plasma (PPP) as a supernatant. Appropriate proportions of this PRP and PPP were mixed to obtain a plasma having a platelet count of 6×10^5 /μl.
Platelet aggregation was determined by the method of Born et al. [G. V. R. Born et al., J. Physiol., 62, 67-68 (1962)] where an increase in light transmission is measured by the aggregometer.
25 μl of a saline solution containing the compound to be tested at an appropriate concentration was added to 250 μl of the above plasma. One minute thereafter. […] The aggregation resulting from the addition of PAF alone, without the prior addition of the test compound was taken as 100%.
The IC50 values (i.e. concentrations to inhibit aggregation by 50%) were calculated from dose-response curves and are shown in Table 6.

Consider `CCCCCCCCCCCCCCCCCNC(=O)OCC(COP(=O)([O-])OCC[n+]1ccsc1)Oc1cc(C)on1` (racemic) [Example 18, (2RS)-3-(N-Heptadecylcarbamoyloxy)-2-(5-methyl-3-isoxazolyloxy)propyl 2-thiazolioethyl phosphate (inner salt)], for which the ED50 with PAF-induced hypotension worked out at 0.081 mg/kg. In addition, the IC50 in test [1] turned out to be 4800 nM.
On the same counts, the results for `CCCCCCCCCCCCCCCc1cc(OCC(COCCCCCCC[n+]2ccsc2)Oc2cc(C)on2)no1` (racemic) [Example 24, (2RS)-1-O-(5-Pentadecyl-3-isoxazolyl)-2-O-(5-methyl-3-isoxazolyl)-3-(7-thiazolioheptyl)glycerol methanesulfonate] are 0.03 mg/kg and 310 nM.
On the same counts, the results for `CCCCCCCCCCCCCCCc1cc(OCC(COC(=O)NCCCCC[n+]2ccsc2)Oc2cc(C)on2)no1` (racemic) [Example 25, (2RS)-1-O-(5-Pentadecyl-3-isoxazolyl)-2-O-(5-methyl-3-isoxazolyl)-3-O-{N-(5-thiazoliopentyl)carbamoyl}glycerol bromide] are 0.055 mg/kg and 270 nM.
For `CCCCCCCCCCCCCCCCCNC(=O)OCC(COC(=O)NCCCCC[n+]1ccsc1)Oc1cc(C)on1.[Br-]` (racemic) [Example 33, 3-{5-[(2RS)-3-(N-Heptadecylcarbamoyloxy)-2-(5-methyl-3-isoxazolyloxy)propoxycarbonylamino]pentyl}thiazolium bromide], in that order: 0.086 mg/kg and 310 nM.
On to `CCCCCCCCCCCCCCCCCCNC(=O)OCC(COP(=O)([O-])OCC[n+]1ccsc1)OC` (stereo not drawn) [CV-3988, reference compound], for which, in the test with PAF-induced hypotension, the ED50 is 0.415 mg/kg. The compound also returned an IC50 in test [1] of 9800 nM.
With `CCCCCCCCCCCCCCCCc1cc(OC[C@H](COC(=O)N[C@H](CCCCC[n+]2ccsc2)C(=O)OCC)Oc2ccon2)no1.CS(=O)(=O)[O-]` (racemic) [Example 41, 3-{(6RS)-6-Ethoxycarbonyl-6-[(2RS)-3-(5-hexadecyl-3-isoxazolyloxy)-2-(3-isoxazolyloxy)propoxy]carbonylaminohexyl}thiazolium methanesulfonate], in the test on PAF-induced hypotension, the ED50 was 0.054 mg/kg. In addition, in test [1], 350 nM corresponded to half-maximal inhibition (IC50).
For `CCCCCCCCCCCCCCCc1cc(OCC(COP(=O)([O-])OCCCCCC[n+]2ccsc2)Oc2cc(C)on2)no1` (racemic) [Example 23, (2RS)-3-(5-Pentadecyl-3-isoxazolyloxy)-2-(5-methyl-3-isoxazolyloxy)propyl 6-thiazoliohexyl phosphate (inner salt)], in that order: 0.067 mg/kg and 1400 nM.
For `CCCCCCCCCCCCCCCCCNC(=O)OCC(COC(=O)N(Cc1cccc[n+]1CC)C(C)=O)Oc1ccon1` (racemic) [Example 38, 2-{N-Acetyl-N-[(2RS)-3-(N-Heptadecylcarbamoyloxy)-2-(3-isoxazolyloxy)propoxycarbonyl]aminomethyl}-1-ethylpyridinium chloride], in that order: 0.004 mg/kg and 81 nM.
As for `CCCCCCCCCCCCCCCCCNC(=O)OCC(COP(=O)([O-])OCC[n+]1ccsc1)Oc1ccon1` (racemic) [Example 13, (2RS)-3-(N-Heptadecylcarbamoyloxy)-2-(3-isoxazolyloxy)propyl 2-thiazolioethyl phosphate (inner salt)], the ED50 with PAF-induced hypotension was determined as 0.096 mg/kg. The midpoint of inhibition in test [1], the IC50, lay at 3400 nM.
